Measured values published in patent US4164577A, “6-(2-Acylamino-2-arylacetamido)penicillanic acids” (priority 1977, dated 1979).
Values after ≈ are worked out from the molar mass of the structure shown.

Key:
Assay in all cases: in vitro antibacterial activity, minimum inhibitory concentration (agar dilution)
Assay type in all cases: cell-based
[1] = test system: Pseudomonas aeruginosa M-12; conditions: ATCC15692, 20 h, read-out: Minimum Inhibitory concentration (MIC) Pseudomonas aeruginosa M-12
Experimental: (§1) The compounds of this invention were tested for antibacterial activity according to the following procedure.
(§2) Nutrient broth and nutrient agar were prepared according to the conventional procedure. Nutrient agar was used as a vehicle. The stock solution was prepared at 100 μg/ml of the test material in the vehicle. Two-fold dilutions were made with the vehicle and then the diluted stock solution was added to a petri dish and solidified by chilling. Test organisms were grown in the nutrient broth for 20 hours at 37° C. The hardened surface was inoculated with a loopful of the test organism solution containing 1×10^6 cells per milliliter and incubated for 20 hours at 37° C. At the end of this period, growth of the organism was observed. […] The following Table 1 summarizes the activity of representative compounds as active antibacterial agents, and compares them with the reference drug Sulbenicillin.

[2] = test system: Pseudomonas aeruginosa M-16; conditions: ATCC15692, 20 h, read-out: Minimum Inhibitory concentration (MIC) Pseudomonas aeruginosa M-16
Experimental: as §1, §2

[3] = test system: Pseudomonas aeruginosa M-2008; conditions: ATCC15691, 20 h, read-out: Minimum Inhibitory concentration (MIC) Pseudomonas aeruginosa M-2008
Experimental: as §1, §2

SMILES: CC1(C)S[C@@H]2[C@H](NC(=O)[C@H](NC(=O)c3nc4cccnc4nc3O)c3ccc(O)cc3)C(=O)N2[C@H]1C(=O)O [Compound 2, potassium 6-[D-2-(3-hydroxypyrido[2,3-b]pyrazine-2-carboxamido)-2-(p-hydroxyphenyl)acetamido]penicillanate]
- MIC [1]: < 1.5 µg/mL
- MIC [2]: 0.78 µg/mL
- MIC [3]: 3.1 µg/mL

SMILES: CC1(C)S[C@@H]2[C@H](NC(=O)[C@H](NC(=O)c3nc4cc(Cl)cnc4nc3O)c3ccc(O)cc3)C(=O)N2[C@H]1C(=O)O [Compound 4]
- MIC [2]: 3.1 µg/mL (≈ 5.41 µM)
- MIC [3]: 6.2 µg/mL (≈ 10.8 µM)

SMILES: CC1(C)S[C@@H]2[C@H](NC(=O)C(c3ccccc3)S(=O)(=O)O)C(=O)N2[C@H]1C(=O)O (stereo partly drawn) [11 Sulbenicillin, Sulbenicillin, reference compound]
- MIC [1]: 25 µg/mL (≈ 60.3 µM)
- MIC [2]: 25 µg/mL (≈ 60.3 µM)
- MIC [3]: 25 µg/mL (≈ 60.3 µM)

SMILES: CC1(C)S[C@@H]2[C@H](NC(=O)[C@H](NC(=O)c3nc4cc(Br)cnc4nc3O)c3ccc(O)cc3)C(=O)N2[C@H]1C(=O)O [Compound 6]
- MIC [2]: < 1.5 µg/mL
- MIC [3]: 3.1 µg/mL (≈ 5.02 µM)

SMILES: CC1(C)S[C@@H]2[C@H](NC(=O)[C@H](NC(=O)c3nc4cncnc4nc3O)c3ccc(O)cc3)C(=O)N2[C@H]1C(=O)O [Compound 8]
- MIC [2]: < 1.56 µg/mL

SMILES: Cc1nc2nc(O)c(C(=O)N[C@@H](C(=O)N[C@@H]3C(=O)N4[C@@H]3SC(C)(C)[C@@H]4C(=O)O)c3ccc(O)cc3)nc2cc1Br [Compound 10]
- MIC [2]: 1.5 µg/mL (≈ 2.38 µM)
